Patent publication US20160227776A1, “COMPOSITION CONTAINING ATTRACTANT OF NOXIOUS ARTHROPOD COMPRISING PLANT-DERIVED COMPONENT AND ANALOGUE OF SAME” (KYOYU AGRI CO., LTD., priority 2013, published 2016)

What was measured:
Format in all cases: in vivo
Thrips tabaci = test: Test Example 6: yellow sticky trap attraction test, mixtures of two compounds; design: key: % = (captured treated − captured untreated)×100/total released per cup; settings: weight of each compound 1 μg; 10 adults per cup; 24 hours
Description: Mixed hexane solutions were prepared respectively containing two types of compounds selected from among p-anisaldehyde, benzaldehyde, ethyl nicotinate, geraniol, linalool, nerol, citronellol, methyl anthranilate, methyl benzoate, o-aminoacetophenone, o-anisidine, methyl m-aminobenzoate, methyl o-toluate and α-hexylcinnamaldehyde. The weight of each compound was adjusted to 1 μg. After impregnating pieces of filter paper (3 mm^2) with the mixed solution of the two types of compounds, the filter paper was affixed on a yellow sticky trap (1 cm^2). After releasing 10 adult Thrips tabaci into a plastic cup (150 ml), the yellow sticky trap containing the above-mentioned mixed attractants was set up at the side of the plastic cup. 24 hours later, the number of T. tabaci captured in the yellow sticky trap was counted and the attraction rate was calculated using Equation 1. In addition, hexane solutions were also prepared containing each of the single compounds at their respective prescribed concentrations for the sake of comparison, and those solutions were tested in the same manner.
Attraction rate=(No. of captured individuals in treatment−no. of captured individuals in untreatment)*100/(total no. released per cup) (1)
(§1) In general, a synergistic attracting effect expected when mixing two given types of attractive compounds and using for treatment is determined from Colby's equation indicated with the following Equation 2: […]
(§2) X: attraction rate when treated with attractive compound A;
(§3) Y: attraction rate when treated with attractive compound B;
(§4) E: attraction rate expected when treating by mixing attractive compound A and attractive compound B (expected attraction rate value).

Drosophila melanogaster = test: Test Example 5: water trap attraction test, mixtures of two compounds; design: key: % = (captured treated − captured untreated)×100/total released; settings: weight of each compound 100 μg; 20 adults per cage; 24 hours
Description: (§5) Mixed hexane solutions were prepared respectively containing two types of compounds selected from among p-anisaldehyde, benzaldehyde, ethyl nicotinate, geraniol, linalool, nerol, citronellol, methyl anthranilate, methyl benzoate, o-aminoacetophenone, o-anisidine, methyl m-aminobenzoate, methyl o-toluate and α-hexylcinnamaldehyde. The weight of each compound was adjusted to 100 μg. After impregnating pieces of filter paper with the mixed solution of the two types of compounds, the filter paper was affixed on a plastic vial cap using adhesive tape and set up in a water trap containing a surfactant. After releasing 20 adult Drosophila melanogaster into an acrylic cage, the water trap containing the above-mentioned mixed attractants was set up in the cage. 24 hours later, the number of D. melanogaster captured in the water trap was counted and the attraction rate was calculated using Equation 1. In addition, hexane solutions were also prepared containing each of the single compounds at their respective prescribed concentrations for the sake of comparison, and those solutions were tested in the same manner.
(§6) Attraction rate=(No. of captured individuals in treatment−no. of captured individuals in untreatment)*100/(total no. released per cage) (1)
as §1, §2
(§7) Y: attraction rate when treated with attractive compound B; and
as §4

[1] = system: Frankliniella occidentalis; test: Test Example 1: water trap attraction test, single compounds; design: key: (captured treated − captured untreated)×100/total released per cage; settings: single compound, 30 adult females per cage, 24 hours
Description: Hexane solutions were prepared respectively containing single compounds selected from among p-anisaldehyde, benzaldehyde, ethyl nicotinate, geraniol, linalool, nerol, citronellol, methyl anthranilate, methyl benzoate, o-aminoacetophenone, o-anisidine, methyl m-aminobenzoate, methyl o-toluate and α-hexylcinnamaldehyde. Each single compound was prepared at five concentration levels consisting of 0.01 μg, 0.1 μg, 1 μg, 10 μg and 100 μg. After impregnating pieces of filter paper with these solutions, the filter paper was affixed on a plastic vial cap using adhesive tape and set up in a water trap containing a surfactant. After releasing 30 adult female Frankliniella occidentalis into an acrylic cage, the water trap containing the above-mentioned attractants was set up in the cage. 24 hours later, the number of Frankliniella occidentalis captured in the water trap was counted and the attraction rate was calculated using Equation 1.
as §6

[2] = system: Frankliniella occidentalis; test: Test Example 2: water trap attraction test, mixtures of two compounds; design: key: % of released insects: (treated catch − untreated catch)×100/total released; settings: single compound for comparison, 24 hours
Description: as §5, with “The weight of each compound was adjusted to 100 μg.” left out, “30” for “20”, “female Frankliniella occidentalis” for “Drosophila melanogaster”, “Frankliniella occidentalis” for “D. melanogaster”
as §6, §1, §2, §7, §4

Tetranychus urticae = test: Test Example 4: plastic tube filter paper contact test, mixtures of two compounds; design: key: (treated − untreated contacts) ×100 / repetitions, %; settings: weight of each compound 1 μg; contact with filter paper within 10 minutes
Description: Mixed hexane solutions were prepared respectively containing two types of compounds selected from among p-anisaldehyde, benzaldehyde, ethyl nicotinate, geraniol, linalool, nerol, citronellol, methyl anthranilate, methyl benzoate, o-aminoacetophenone, o-anisidine, methyl m-aminobenzoate, methyl o-toluate and α-hexylcinnamaldehyde. The weight of each compound was adjusted to 1 μg. After impregnating pieces of filter paper (3 mm^2) with the mixed solution of the two types of compounds, the filter paper was set up at the head of a plastic tube (length of 9 cm, 5 mm^2 in diameters). An adult Tetranychus urticae was released into the end of plastic tube. Among 10 minutes, the number of T. urticae contacted the filter paper was counted and the attraction rate was calculated using Equation 1. In addition, hexane solutions were also prepared containing each of the single compounds at their respective prescribed concentrations for the sake of comparison, and those solutions were tested in the same manner.
Attraction rate=(No. of contacted individuals in treatment−no. of contacted individuals in untreatment)*100/(repetition) (1)
as §1, §2, §3, §4

[3] = system: Frankliniella occidentalis; test: Test Example 3: water trap attraction test, mixtures of three compounds; design: scale not given here; settings: single compound for comparison, 24 hours
Description: Mixed hexane solutions were prepared containing three types of compounds selected from among p-anisaldehyde, benzaldehyde, ethyl nicotinate, geraniol, linalool, nerol, citronellol, methyl anthranilate, methyl benzoate, o-aminoacetophenone, o-anisidine, methyl m-aminobenzoate, methyl o-toluate and α-hexylcinnamaldehyde. […] After impregnating pieces of filter paper with the mixed solution of the three types of compounds, the filter paper was affixed on a plastic vial cap using adhesive tape and set up in a pan trap containing a surfactant. After releasing 30 adult female Frankliniella occidentalis into an acrylic cage, the water trap containing the above-mentioned mixed attractants was set up in the cage. 24 hours later, the number of Frankliniella occidentalis captured in the water trap was counted and the attraction rate was calculated using Equation 1. In addition, hexane solutions were also prepared containing each of the single agents at their respective prescribed concentrations for the sake of comparison, and those solutions were tested in the same manner.
In general, a synergistic attracting effect expected when mixing three given types of attractive compounds and using for treatment is determined from Colby's equation indicated with the following Equation 3: […]
as §2, §3
Z: attraction rate when treated with attractive compound C; and
E: attraction rate expected when treating by mixing attractive compound A, attractive compound B and attractive compound C (expected attraction rate value).

| SMILES | Attraction Rate (Thrips tabaci) | Attraction Rate (Drosophila melanogaster) | Attraction Rate ([1]; Amount 0.01 μg) | Attraction Rate ([1]; Amount 0.1 μg) | Attraction Rate ([1]; Amount 1 μg) | Attraction Rate ([1]; Amount 10 μg) | Attraction Rate ([1]; Amount 100 μg) | Attraction Rate ([2]; 1 μg) | Attraction Rate (Tetranychus urticae) | Attraction Rate ([3]; 1 μg) | Attraction Rate ([2]; 100 μg) | Attraction Rate ([3]; 100 μg) | Attraction Rate ([2]; 10 μg) | Attraction Rate ([3]; 10 μg) |
| --- | --- | --- | --- | --- | --- | --- | --- | --- | --- | --- | --- | --- | --- | --- |
| C=CC(C)(O)CCC=C(C)C (centres unmarked) [Linalool, linalool] | 0 | 3 | 13 | 13 | 20 | 13 | 7 | 20 | 5 | 20 |  |  |  |  |
| O=Cc1ccccc1 [Benzaldehyde, benzaldehyde] |  | 3 | 23 | 33 | 36 | 30 | 27 | 36 | 32 | 36 |  |  |  |  |
| COc1ccc(C=O)cc1 [p-anisaldehyde] | 10 | 3 | 17 | 23 | 23 | 30 | 36 |  |  |  | 36 | 36 |  |  |
| CCCCCCC(C=O)=Cc1ccccc1 [α-hexylcinnamaldehyde] | 7 | 8 | 13 | 27 | 33 | 30 | 30 | 33 |  | 33 |  |  |  |  |
| COC(=O)c1ccccc1 [Methyl benzoate, methyl benzoate] |  | 8 | 7 | 23 | 27 | 33 | 36 |  | 25 |  | 36 | 46 |  |  |
| CC(C)=CCC/C(C)=C\CO [Nerol, nerol] |  | 3 | 10 | 33 | 33 | 30 | 27 | 33 | 5 | 33 |  |  |  |  |
| CC(=O)c1ccccc1N [o-aminoacetophenone] |  | 13 | 3 | 17 | 23 | 30 | 36 |  | 38 |  | 36 | 36 |  |  |
| COc1ccccc1N [o-anisidine] | 0 | 8 | 6 | 10 | 20 | 30 | 40 |  | 15 |  | 40 | 40 |  |  |
| COC(=O)c1cccc(N)c1 [Methyl m-aminobenzoate, methyl m-aminobenzoate] | 0 | 8 | 3 | 10 | 27 | 33 | 40 |  |  |  | 40 | 40 |  |  |
| CC(C)=CCCC(C)CCO (centres unmarked) [Citronellol, citronellol] |  | 3 | 7 | 20 | 20 | 20 | 23 |  |  |  | 23 | 23 |  |  |
| COC(=O)c1ccccc1N [Methyl anthranilate, methyl anthranilate] | 10 | 8 | 10 | 13 | 13 | 17 | 20 |  |  |  | 20 | 20 |  |  |
| COC(=O)c1ccccc1C [Methyl o-toluate, methyl o-toluate] |  | 3 | 3 | 13 | 17 | 20 | 23 |  | 15 |  | 23 | 23 |  |  |
| CCOC(=O)c1cccnc1 [Ethyl nicotinate, ethyl nicotinate] | 10 | 3 | 13 | 27 | 30 | 36 | 43 |  | 15 |  | 43 | 43 |  |  |
| CC(C)=CCC/C(C)=C/CO [Geraniol, geraniol] | 0 | 23 | 10 | 17 | 30 | 33 | 27 |  |  |  |  |  | 33 | 33 |
